Test results reported in ChEMBL document CHEMBL1201862, “PubChem BioAssay data set” (2004).
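Values below derive from 48-hour exposures of cells grown in 96-well plates, with endpoints linearly interpolated between the two concentrations bracketing the appropriate inhibition level. GI50: concentration for 50% inhibition of growth.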 Active and inactive are the calls of the source. Cut-off read from the data, not from the text of the source: active = GI50 up to about 1.1 µM and inactive = higher.

Tests used:
Assay in all cases: growth of human tumour cells (NCI), 48 h
UACC-62 = system: UACC-62
NCI-H23 = system: NCI-H23
UO-31 = system: UO-31
SF-268 = system: SF-268
OVCAR-3 = system: OVCAR-3
MOLT-4 = system: MOLT-4
MDA-MB-435 = system: MDA-MB-435
EKVX = system: EKVX
U-251 = system: U-251
TK-10 = system: TK-10
SK-OV-3 = system: SK-OV-3
K562 = system: K562
SK-MEL-2 = system: SK-MEL-2
NCI-H226 = system: NCI-H226
CCRF-CEM = system: CCRF-CEM
SN12C = system: SN12C
SR = system: SR
OVCAR-8 = system: OVCAR-8
SK-MEL-5 = system: SK-MEL-5
HCT-15 = system: HCT-15

Row | SMILES | GI50 (UACC-62) | GI50 (NCI-H23) | GI50 (UO-31) | GI50 (SF-268) | GI50 (OVCAR-3) | GI50 (MOLT-4) | GI50 (MDA-MB-435) | GI50 (EKVX) | GI50 (U-251) | GI50 (TK-10) | GI50 (SK-OV-3) | GI50 (K562) | GI50 (SK-MEL-2) | GI50 (NCI-H226) | GI50 (CCRF-CEM) | GI50 (SN12C) | GI50 (SR) | GI50 (OVCAR-8) | GI50 (SK-MEL-5) | GI50 (HCT-15) [µM]
1 | Cc1ccc(C2(N3CCOCC3)OC(C)(C)c3cccc4cccc2c34)cc1 (stereo unspecified) | 13.6 µM (inactive) | 17.7 µM (inactive) | 16.9 µM (inactive) | 14.4 µM (inactive) | 16 µM (inactive) | 41.5 µM (inactive) | 16.9 µM (inactive) | 13 µM (inactive) | 16.5 µM (inactive) | 17.3 µM (inactive) | 16.7 µM (inactive) | 30.2 µM (inactive) | 15.6 µM (inactive) | 17.1 µM (inactive) | 22.6 µM (inactive) | 16.9 µM (inactive) | 35.1 µM (inactive) | 16.9 µM (inactive) | 18.6 µM (inactive) | 17
2 | CC(O)C1(CNc2cc(Cl)nc(N)n2)CC(CCc2ccccc2)C1 (stereo unspecified) | 11.9 µM (inactive) | 3.06 µM (inactive) | 12.1 µM (inactive) | 14.9 µM (inactive) | 16.1 µM (inactive) | 11.6 µM (inactive) | 13.7 µM (inactive) | 10.2 µM (inactive) | 14.5 µM (inactive) | 16.1 µM (inactive) | 15.1 µM (inactive) | 6.78 µM (inactive) | 17.2 µM (inactive) | 14.7 µM (inactive) | 17.6 µM (inactive) | 7.66 µM (inactive) | 6.15 µM (inactive) | 14.5 µM (inactive) | 5.71 µM (inactive) | 11.6
3 | Cn1c(CO)ccc1-c1ccc(-c2ccc[se]2)[se]1 | – | 20.5 µM (inactive) | > 87.1 µM (inactive) | 56.9 µM (inactive) | – | 19.6 µM (inactive) | 12.6 µM (inactive) | 35.1 µM (inactive) | – | < 0.01 µM (active) | 13.6 µM (inactive) | 0.449 µM (active) | 41.1 µM (inactive) | 0.244 µM (active) | 23.1 µM (inactive) | > 52.4 µM (inactive) | 30.3 µM (inactive) | 23 µM (inactive) | 29.8 µM (inactive) | 35.9
4 | OC(CCN1CCN(CCOC(c2ccc(F)cc2)c2ccc(F)cc2)CC1)c1ccc(Br)cc1 (stereo unspecified) | 4.06 µM (inactive) | 6.75 µM (inactive) | 2.22 µM (inactive) | 4.76 µM (inactive) | 3.34 µM (inactive) | 2.4 µM (inactive) | 2.27 µM (inactive) | 5.15 µM (inactive) | 4.11 µM (inactive) | 6.76 µM (inactive) | 7.35 µM (inactive) | 2.45 µM (inactive) | 5.36 µM (inactive) | 5.7 µM (inactive) | 2.77 µM (inactive) | 2.68 µM (inactive) | 2.34 µM (inactive) | 2.02 µM (inactive) | 1.69 µM (inactive) | 2.74
5 | CC1(C)C2C=C(CCN3CCOCC3)CC1C2 (stereo unspecified) | > 100 µM (inactive) | > 100 µM (inactive) | > 100 µM (inactive) | > 100 µM (inactive) | > 100 µM (inactive) | > 100 µM (inactive) | > 100 µM (inactive) | > 100 µM (inactive) | > 100 µM (inactive) | > 100 µM (inactive) | > 100 µM (inactive) | > 100 µM (inactive) | > 100 µM (inactive) | 64.9 µM (inactive) | > 100 µM (inactive) | > 100 µM (inactive) | > 100 µM (inactive) | > 100 µM (inactive) | > 100 µM (inactive) | > 100
6 | Cc1ccc(C)c(COCCOCn2cc(Br)c(N)nc2=O)c1 | > 100 µM (inactive) | > 100 µM (inactive) | > 100 µM (inactive) | > 100 µM (inactive) | > 100 µM (inactive) | > 100 µM (inactive) | > 100 µM (inactive) | > 100 µM (inactive) | > 100 µM (inactive) | > 100 µM (inactive) | > 100 µM (inactive) | > 100 µM (inactive) | > 100 µM (inactive) | > 100 µM (inactive) | > 100 µM (inactive) | > 100 µM (inactive) | > 100 µM (inactive) | > 100 µM (inactive) | – | > 100
7 | CSc1nc(C#N)c(N)n1C | > 100 µM (inactive) | > 100 µM (inactive) | > 100 µM (inactive) | > 100 µM (inactive) | > 100 µM (inactive) | > 100 µM (inactive) | > 100 µM (inactive) | > 100 µM (inactive) | > 100 µM (inactive) | > 100 µM (inactive) | > 100 µM (inactive) | > 100 µM (inactive) | > 100 µM (inactive) | > 100 µM (inactive) | > 100 µM (inactive) | > 100 µM (inactive) | > 100 µM (inactive) | > 100 µM (inactive) | > 100 µM (inactive) | > 100
8 | O=C(c1ccc(Cl)c(Cl)c1)N(Cc1cccnc1)C(=S)N(Cc1cccnc1)C(=O)c1ccc(Cl)c(Cl)c1 | 50.7 µM (inactive) | 37.8 µM (inactive) | 17.9 µM (inactive) | 36.1 µM (inactive) | 25.5 µM (inactive) | 37.3 µM (inactive) | 62.5 µM (inactive) | 40.6 µM (inactive) | 29.3 µM (inactive) | 29.9 µM (inactive) | > 100 µM (inactive) | 30.3 µM (inactive) | 25.1 µM (inactive) | 31.8 µM (inactive) | 94 µM (inactive) | 24.1 µM (inactive) | 17.5 µM (inactive) | 30.5 µM (inactive) | 27.7 µM (inactive) | 20
9 | CCCC(c1cc(C(C)(C)C)c(O)cc1C)c1cc(C(C)(C)C)c(O)cc1C | 2.09 µM (inactive) | 2.65 µM (inactive) | 3.33 µM (inactive) | 4.4 µM (inactive) | 1.81 µM (inactive) | 2.16 µM (inactive) | 2.59 µM (inactive) | 2.88 µM (inactive) | 2.65 µM (inactive) | 3.2 µM (inactive) | 3.65 µM (inactive) | 2.23 µM (inactive) | 2.6 µM (inactive) | 2.3 µM (inactive) | 2.71 µM (inactive) | 1.94 µM (inactive) | 2.26 µM (inactive) | 4.03 µM (inactive) | 1.77 µM (inactive) | 3.35
10 | C[C@H](CCc1nc(C#N)c(N)o1)[C@H]1CC[C@H]2[C@@H]3[C@@H](O)CC4C[C@@H](O)CC[C@]4(C)[C@H]3C[C@@H](O)[C@]12C (stereo partly specified) | 10.7 µM (inactive) | 24 µM (inactive) | 20.6 µM (inactive) | 20.2 µM (inactive) | 17.7 µM (inactive) | 15 µM (inactive) | 22 µM (inactive) | 28.3 µM (inactive) | 20.7 µM (inactive) | 24.2 µM (inactive) | 37.5 µM (inactive) | 23.1 µM (inactive) | 19.9 µM (inactive) | 21.2 µM (inactive) | 0.498 µM (active) | 20.6 µM (inactive) | 17 µM (inactive) | 12.9 µM (inactive) | 18.9 µM (inactive) | 48.3
11 | CC(Br)C(=O)Nc1ccc(C(=O)O)c(O)c1 (stereo unspecified) | 33.6 µM (inactive) | 27.4 µM (inactive) | > 100 µM (inactive) | 36.3 µM (inactive) | 29.2 µM (inactive) | 36.1 µM (inactive) | 34.4 µM (inactive) | > 100 µM (inactive) | 23.2 µM (inactive) | 52.4 µM (inactive) | 38.5 µM (inactive) | 49.8 µM (inactive) | 32.4 µM (inactive) | 93.5 µM (inactive) | 15.8 µM (inactive) | 24.7 µM (inactive) | 32.9 µM (inactive) | 52.8 µM (inactive) | 62.5 µM (inactive) | > 100
12 | CCn1sc2ccccc2c1=O | 13.9 µM (inactive) | 13 µM (inactive) | – | 17.3 µM (inactive) | 12.9 µM (inactive) | 3.78 µM (inactive) | 1.99 µM (inactive) | 17.1 µM (inactive) | 6 µM (inactive) | 16.5 µM (inactive) | 36 µM (inactive) | 4.58 µM (inactive) | 21.7 µM (inactive) | 24.1 µM (inactive) | 1.87 µM (inactive) | 5.32 µM (inactive) | 1.95 µM (inactive) | 9.12 µM (inactive) | 9.84 µM (inactive) | 7.94
13 | CCOC(=O)C(=CNC(=S)N/N=C1\C(=O)Nc2ccccc21)C(=O)OCC | > 100 µM (inactive) | > 100 µM (inactive) | 29 µM (inactive) | 43.8 µM (inactive) | 46.2 µM (inactive) | 84.7 µM (inactive) | > 100 µM (inactive) | – | > 100 µM (inactive) | 59.2 µM (inactive) | > 100 µM (inactive) | > 100 µM (inactive) | > 100 µM (inactive) | > 100 µM (inactive) | 41.9 µM (inactive) | > 100 µM (inactive) | 69.3 µM (inactive) | 89.9 µM (inactive) | 90.8 µM (inactive) | –
14 | O=[N+]([O-])C(/C=C(\Cl)n1nnc2ccccc21)=C(/Cl)n1nnc2ccccc21 | > 100 µM (inactive) | > 100 µM (inactive) | > 100 µM (inactive) | > 100 µM (inactive) | > 100 µM (inactive) | > 100 µM (inactive) | > 100 µM (inactive) | > 100 µM (inactive) | > 100 µM (inactive) | > 100 µM (inactive) | > 100 µM (inactive) | > 100 µM (inactive) | > 100 µM (inactive) | > 100 µM (inactive) | 76.4 µM (inactive) | > 100 µM (inactive) | > 100 µM (inactive) | – | > 100 µM (inactive) | > 100
15 | COc1cc(Cn2c3c(c4cc(O)ccc42)Cc2ccccc2C3=O)cc(OC)c1 | 38.2 µM (inactive) | > 100 µM (inactive) | > 100 µM (inactive) | > 100 µM (inactive) | > 100 µM (inactive) | 28.9 µM (inactive) | 11.9 µM (inactive) | – | 57.3 µM (inactive) | > 100 µM (inactive) | > 100 µM (inactive) | 44.7 µM (inactive) | > 100 µM (inactive) | > 100 µM (inactive) | 22.6 µM (inactive) | 24.7 µM (inactive) | 6.46 µM (inactive) | 59.6 µM (inactive) | 35.7 µM (inactive) | 33.9
